Read-outs that look alike come from different tables or passages of the source. Values belong to the compound of their own block, whether it stands above or below them.
Columns and labels:
Assay in all cases: MIC of β-lactams alone or with 50 µM IDACYD against clinical isolates
Format in all cases: cell-based
[1] = test system: Klebsiella pneumoniae; details: for MIC: Klebsiella pneumoniae, alone; for Imipenem + α-IDACYD MIC / Meropenem + α-IDACYD MIC: IDACYD 50 μM
Method: Further the in-vitro inhibitory activity of IDACYDs was tested against highly resistant pathogens. […] Table 2: Collection of clinical isolates used for in-vitro evaluation

[2] = test system: Escherichia coli; details: Escherichia coli, alone
Method: (§1) Further the in-vitro inhibitory activity of IDACYDs was tested against highly resistant pathogens. Tables 3, 4 and 5 show the effect of IDACYDs using a collection of 36 highly resistant Gram negative strains (Table 2, Kirby-Bauer disc diffusion method) producing NDM, VIM and IMP type MBLs as well as 6 isolates expressing serine beta-lactamases (ESBLs, AmpCs). […] Clinical isolates co-expressing ESBLs and/or AmpC β-lactamases along with MBLs where re-sensitized to both imipenem and meropenem, as expected. Table 2: Collection of clinical isolates used for in-vitro evaluation

[3] = test system: Proteus mirabilis; details: Proteus mirabilis, alone
Method: as §1

[4] = test system: Providencia stuartii; details: Providencia stuartii, alone
Method: as §1

[5] = test system: Serratia marcescens; details: Serratia marcescens, isolate EUG-815 (VIM, CMY), alone
Method: as §1

[6] = test system: Acinetobacter baumannii; details: Acinetobacter baumannii, alone, read-out: Imipenem MIC
Method: as §1

[7] = test system: Enterobacter gergoviae; details: Pluralibacter gergoviae, alone, read-out: Imipenem MIC
Method: as §1

Structure (SMILES): CC(C)(O/N=C(\C(=O)N[C@@H]1C(=O)N2C(C(=O)[O-])=C(C[n+]3ccccc3)CS[C@H]12)c1csc(N)n1)C(=O)O [Ceftazidime, reference compound]
MIC ([1]; isolate ALX-47 (OXA-48,CTX-M), read-out: Ceftazidime MIC): > 256 µg/mL
MIC ([1]; isolate ESDY-5742 (IMP), read-out: Ceftazidime MIC): > 256 µg/mL
MIC ([1]; isolate LA-28 (NDM, CTXM), read-out: Ceftazidime MIC): > 256 µg/mL
MIC ([1]; isolate LA-82/16 (VIM, SHV), read-out: Ceftazidime MIC): > 256 µg/mL
MIC ([1]; isolate LA-109/16 (VIM, CTXM), read-out: Ceftazidime MIC): > 256 µg/mL
MIC ([1]; isolate LAR-4011/15, read-out: Ceftazidime MIC): 32 µg/mL
MIC ([1]; isolate UoA 12/227 (VIM), read-out: Ceftazidime MIC): > 256 µg/mL
MIC ([1]; isolate UoA 1995 (VIM), read-out: Ceftazidime MIC): > 256 µg/mL
MIC ([2]; isolate TZAN-116 (VIM), read-out: Ceftazidime MIC): > 256 µg/mL
MIC ([3]; isolate ESDY-15184 (VIM, CMY), read-out: Ceftazidime MIC): > 256 µg/mL
MIC ([4]; isolate ALX- 21 (VIM, VEB), read-out: Ceftazidime MIC): 128 µg/mL
MIC ([4]; isolate ESDY-4559 (VIM), read-out: Ceftazidime MIC): 8 µg/mL
MIC ([5]; read-out: Ceftazidime MIC): > 256 µg/mL

MIC ([1]; Table 5, Kpn ESDY 5742 (IMP-1), read-out: Imipenem MIC): 8 µg/mL
MIC ([1]; Table 5, Kpn LA 26 (NDM-1), read-out: Imipenem MIC): 16 µg/mL
MIC ([1]; Table 5, Kpn LA 34 (VIM-1 CMY), read-out: Imipenem MIC): 16 µg/mL
MIC ([1]; Table 5, Kpn LA 82/16 (VIM-1), read-out: Imipenem MIC): 64 µg/mL
MIC ([1]; Table 5, Kpn LA 109/16 (VIM-1), read-out: Imipenem MIC): 16 µg/mL
MIC ([1]; Table 5, Kpn LA419/16 (NDM-1), read-out: Imipenem MIC): 8 µg/mL
MIC ([1]; Table 5, Kpn LAR 37II/15 (NDM-1, VIM-1, CTXM), read-out: Imipenem MIC): 64 µg/mL
MIC ([1]; isolate 6/100 (VIM), read-out: Imipenem MIC): 32 µg/mL
MIC ([1]; isolate 2489 (NDM), read-out: Imipenem MIC): 32 µg/mL
MIC ([1]; isolate 2685 (VIM, CMY, CTXM), read-out: Imipenem MIC): 32 µg/mL
MIC ([1]; isolate ALX-47 (OXA-48,CTX-M), read-out: Imipenem MIC): 4 µg/mL
MIC ([1]; isolate ESDY-1780 (VIM, KPC), read-out: Imipenem MIC): 16 µg/mL
MIC ([1]; isolate ESDY-2681 (VIM-27), read-out: Imipenem MIC): 16 µg/mL
MIC ([1]; isolate ESDY-5742 (IMP), read-out: Imipenem MIC): 8 µg/mL
MIC ([1]; isolate EY-20S (CMY, SHV), read-out: Imipenem MIC): 2 µg/mL
MIC ([1]; isolate IT-17829 (CTXM, SHV), read-out: Imipenem MIC): 1 µg/mL
MIC ([1]; isolate L078/11 (KPC), read-out: Imipenem MIC): 32 µg/mL
MIC ([1]; isolate LA-26 (NDM), read-out: Imipenem MIC): 16 µg/mL
MIC ([1]; isolate LA-27 (NDM, CTXM), read-out: Imipenem MIC): 8 µg/mL
MIC ([1]; isolate LA-28 (NDM, CTXM), read-out: Imipenem MIC): 8 µg/mL
MIC ([1]; isolate LA-34 (VIM, CMY), first entry of Table 3, read-out: Imipenem MIC): 32 µg/mL
MIC ([1]; isolate LA-34 (VIM, CMY), second entry of Table 3, read-out: Imipenem MIC): 32 µg/mL
MIC ([1]; isolate LA-38 (NDM), read-out: Imipenem MIC): 8 µg/mL
MIC ([1]; isolate LA-82/16 (VIM, SHV), read-out: Imipenem MIC): 8 µg/mL
MIC ([1]; isolate LA-109/16 (VIM, CTXM), read-out: Imipenem MIC): 16 µg/mL
MIC ([1]; isolate LA-419/16 (NDM,CTXM), read-out: Imipenem MIC): 4 µg/mL
MIC ([1]; isolate LA-470/17 (NDM), read-out: Imipenem MIC): 8 µg/mL
MIC ([1]; isolate LAR-26I/15 (NDM, VIM, CTXM), read-out: Imipenem MIC): 16 µg/mL
MIC ([1]; isolate LAR-37II/15 (NDM, VIM, CTXM), read-out: Imipenem MIC): 64 µg/mL
MIC ([1]; isolate LAR-38I/15 (VIM, NDM, CTXM), read-out: Imipenem MIC): 4 µg/mL
MIC ([1]; isolate LAR-40II/15 (KPC), read-out: Imipenem MIC): 16 µg/mL
MIC ([1]; isolate LAR-2873 (VIM-12), read-out: Imipenem MIC): 4 µg/mL
MIC ([1]; isolate LAR-7547 (NDM, VIM, CTXM), read-out: Imipenem MIC): 64 µg/mL
MIC ([1]; isolate SEC-2 (VIM), read-out: Imipenem MIC): 32 µg/mL
MIC ([1]; isolate SEC-4 (VIM), read-out: Imipenem MIC): 64 µg/mL
MIC ([1]; isolate TZAN-59 (β-lactamase: None), read-out: Imipenem MIC): 1 µg/mL
MIC ([1]; isolate UoA 12/227 (VIM), read-out: Imipenem MIC): 8 µg/mL
MIC ([1]; isolate UoA 1995 (VIM), read-out: Imipenem MIC): 8 µg/mL
MIC ([6]; isolate TZAN-40 (VIM, OXA-58)): 4 µg/mL
MIC ([6]; isolate TZAN-42 (VIM, OXA-58)): 8 µg/mL
MIC ([7]; isolate AK-5227 (VIM, CMY)): 8 µg/mL
MIC ([7]; isolate AK-5240 (VIM, CMY)): 8 µg/mL
MIC ([2]; isolate TZAN-116 (VIM), read-out: Imipenem MIC): 4 µg/mL
MIC ([2]; isolate TZAN-541 (VIM), read-out: Imipenem MIC): 4 µg/mL
MIC ([3]; Table 5, Pr m ESDY 15315 (VIM-1, CMY), read-out: Imipenem MIC): 16 µg/mL
MIC ([3]; isolate ALX-13 (VIM, VEB), read-out: Imipenem MIC): 8 µg/mL
MIC ([3]; isolate ESDY-17 (VIM, CMY), read-out: Imipenem MIC): 4 µg/mL
MIC ([3]; isolate ESDY-15184 (VIM, CMY), read-out: Imipenem MIC): 8 µg/mL
MIC ([3]; isolate ESDY-15315 (VIM, CMY), read-out: Imipenem MIC): 16 µg/mL
MIC ([4]; isolate ALX- 21 (VIM, VEB), read-out: Imipenem MIC): 8 µg/mL
MIC ([4]; isolate ALX-27 (VIM), read-out: Imipenem MIC): 16 µg/mL
MIC ([4]; isolate ESDY-4559 (VIM), read-out: Imipenem MIC): 4 µg/mL
MIC ([4]; isolate ESDY-4563 (VIM, VEB), read-out: Imipenem MIC): 4 µg/mL
MIC ([5]; read-out: Imipenem MIC): 16 µg/mL
Structure (SMILES): C[C@@H](O)[C@H]1C(=O)N2C(C(=O)O)=C(SCCN=CN)C[C@H]12 [Imipenem, reference compound]

Imipenem + α-IDACYD MIC ([1]; Kpn ESDY 5742 (IMP-1)): <0.25 µg/mL
Meropenem + α-IDACYD MIC ([1]; Kpn ESDY 5742 (IMP-1)): <0.25 µg/mL
Imipenem + α-IDACYD MIC ([1]; Kpn LA 34 (VIM-1 CMY)): <0.5 µg/mL
Meropenem + α-IDACYD MIC ([1]; Kpn LA 34 (VIM-1 CMY)): <0.5 µg/mL
Imipenem + α-IDACYD MIC ([1]; Kpn LA 82/16 (VIM-1)): <0.25 µg/mL
Meropenem + α-IDACYD MIC ([1]; Kpn LA 82/16 (VIM-1)): <0.25 µg/mL
Imipenem + α-IDACYD MIC ([1]; Kpn LA 109/16 (VIM-1)): <0.25 µg/mL
Meropenem + α-IDACYD MIC ([1]; Kpn LA 109/16 (VIM-1)): <0.25 µg/mL
Imipenem + α-IDACYD MIC ([1]; Kpn LA419/16 (NDM-1)): <0.25 µg/mL
Meropenem + α-IDACYD MIC ([1]; Kpn LA419/16 (NDM-1)): <0.25 µg/mL
Structure (SMILES): CO[C@@H]1[C@@H](OC)[C@H]2O[C@H]3[C@H](OC)[C@@H](OC)[C@@H](O[C@H]4[C@H](OC)[C@@H](OC)[C@@H](O[C@H]5[C@H](OC)[C@@H](OC)[C@@H](O[C@H]6[C@H](OC)[C@@H](OC)[C@@H](O[C@H]7[C@H](OC)[C@@H](OC)[C@@H](O[C@@H]1[C@@H](CN(CC(=O)O)CC(=O)O)O2)O[C@@H]7CN(CC(=O)O)CC(=O)O)O[C@@H]6CN(CC(=O)O)CC(=O)O)O[C@@H]5CN(CC(=O)O)CC(=O)O)O[C@@H]4CN(CC(=O)O)CC(=O)O)O[C@@H]3CN(CC(=O)O)CC(=O)O [α-IDACYD]

Reference: EP3714904B1, “IMINODIACETIC ACID SUBSTITUTED CYCLODEXTRINS AS POTENTIATORS OF BETA-LACTAM ANTIBIOTICS” (NATIONAL CENTER FOR SCIENTIFIC RESEARCH "DEMOKRITOS" (NCSRD), priority 2019, dated 2020)
